Experimental data from ChEMBL document CHEMBL3102750 (J Med Chem, 2013).
Changes are numbered by the printed parent chain.

How the values were obtained:
Format in all cases: functional, cell-based
[1] = target: Muscarinic acetylcholine receptor M3 (Homo sapiens, UniProt P20309); experiment: Negative allosteric modulation of human muscarinic acetylcholine receptor M3 expressed in CHO cells assessed as inhibition of acetylcholine-induced calcium mobilization incubated for 150 secs prior to acetylcholine induction by Fluo-4 AM staining-based fluorescence assay
Chain of Muscarinic acetylcholine receptor M3 (Homo sapiens, UniProt P20309) (P20309 whole entry): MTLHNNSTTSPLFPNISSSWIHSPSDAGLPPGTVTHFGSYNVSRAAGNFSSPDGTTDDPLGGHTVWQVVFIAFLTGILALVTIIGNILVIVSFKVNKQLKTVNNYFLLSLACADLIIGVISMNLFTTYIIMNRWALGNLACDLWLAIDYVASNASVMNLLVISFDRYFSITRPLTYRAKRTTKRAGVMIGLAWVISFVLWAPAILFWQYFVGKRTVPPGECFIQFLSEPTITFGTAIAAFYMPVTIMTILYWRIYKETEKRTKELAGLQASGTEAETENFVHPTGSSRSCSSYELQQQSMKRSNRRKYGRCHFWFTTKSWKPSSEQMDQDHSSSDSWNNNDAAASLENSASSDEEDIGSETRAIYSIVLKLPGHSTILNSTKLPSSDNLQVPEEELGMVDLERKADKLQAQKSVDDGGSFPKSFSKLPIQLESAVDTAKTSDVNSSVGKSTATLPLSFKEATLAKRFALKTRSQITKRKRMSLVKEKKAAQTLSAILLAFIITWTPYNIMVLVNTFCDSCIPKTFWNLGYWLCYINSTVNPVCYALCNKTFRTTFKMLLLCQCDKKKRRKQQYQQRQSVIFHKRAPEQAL

[2] = target: T1, Muscarinic acetylcholine receptor M1 (Homo sapiens, UniProt P11229); experiment: Negative allosteric modulation of human muscarinic acetylcholine receptor M1 expressed in CHO cells assessed as inhibition of acetylcholine-induced calcium mobilization incubated for 150 secs prior to acetylcholine induction by Fluo-4 AM staining-based fluorescence assay
T1 sequence (P11229 whole entry): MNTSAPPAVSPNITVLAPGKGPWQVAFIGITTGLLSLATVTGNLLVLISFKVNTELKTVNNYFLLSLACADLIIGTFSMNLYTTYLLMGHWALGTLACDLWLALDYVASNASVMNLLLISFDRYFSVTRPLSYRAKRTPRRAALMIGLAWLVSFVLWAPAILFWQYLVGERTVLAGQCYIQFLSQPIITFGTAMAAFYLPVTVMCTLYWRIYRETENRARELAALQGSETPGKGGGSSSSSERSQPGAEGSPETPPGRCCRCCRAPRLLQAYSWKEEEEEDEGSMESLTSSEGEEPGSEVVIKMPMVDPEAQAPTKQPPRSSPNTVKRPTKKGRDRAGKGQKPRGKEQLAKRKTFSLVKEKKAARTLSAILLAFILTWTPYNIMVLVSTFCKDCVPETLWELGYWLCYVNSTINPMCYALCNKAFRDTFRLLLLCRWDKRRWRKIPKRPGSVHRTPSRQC

[3] = target: T2, Muscarinic acetylcholine receptor M4 (Rattus norvegicus, UniProt P08485); experiment: Negative allosteric modulation of rat muscarinic acetylcholine receptor M4 expressed in CHO cells assessed as inhibition of acetylcholine-induced calcium mobilization incubated for 150 secs prior to acetylcholine induction by Fluo-4 AM staining-based fluorescence assay
T2 sequence (P08485 whole entry): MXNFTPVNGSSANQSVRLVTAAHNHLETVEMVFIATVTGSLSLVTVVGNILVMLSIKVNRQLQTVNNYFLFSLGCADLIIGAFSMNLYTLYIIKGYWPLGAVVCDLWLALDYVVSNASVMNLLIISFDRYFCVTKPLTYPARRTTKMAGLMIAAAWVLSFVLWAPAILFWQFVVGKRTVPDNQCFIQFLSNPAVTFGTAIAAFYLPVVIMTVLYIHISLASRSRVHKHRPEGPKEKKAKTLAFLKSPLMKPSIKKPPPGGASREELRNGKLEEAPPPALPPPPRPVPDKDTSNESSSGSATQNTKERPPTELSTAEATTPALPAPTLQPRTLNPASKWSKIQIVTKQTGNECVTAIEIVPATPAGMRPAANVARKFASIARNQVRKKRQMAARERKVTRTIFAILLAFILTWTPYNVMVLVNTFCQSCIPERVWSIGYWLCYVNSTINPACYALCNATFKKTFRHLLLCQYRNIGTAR

[4] = target: T3, Muscarinic acetylcholine receptor M2 (Homo sapiens, UniProt P08172); experiment: Negative allosteric modulation of human muscarinic acetylcholine receptor M2 expressed in CHO cells assessed as inhibition of acetylcholine-induced calcium mobilization incubated for 150 secs prior to acetylcholine induction by Fluo-4 AM staining-based fluorescence assay
T3 sequence (P08172 whole entry): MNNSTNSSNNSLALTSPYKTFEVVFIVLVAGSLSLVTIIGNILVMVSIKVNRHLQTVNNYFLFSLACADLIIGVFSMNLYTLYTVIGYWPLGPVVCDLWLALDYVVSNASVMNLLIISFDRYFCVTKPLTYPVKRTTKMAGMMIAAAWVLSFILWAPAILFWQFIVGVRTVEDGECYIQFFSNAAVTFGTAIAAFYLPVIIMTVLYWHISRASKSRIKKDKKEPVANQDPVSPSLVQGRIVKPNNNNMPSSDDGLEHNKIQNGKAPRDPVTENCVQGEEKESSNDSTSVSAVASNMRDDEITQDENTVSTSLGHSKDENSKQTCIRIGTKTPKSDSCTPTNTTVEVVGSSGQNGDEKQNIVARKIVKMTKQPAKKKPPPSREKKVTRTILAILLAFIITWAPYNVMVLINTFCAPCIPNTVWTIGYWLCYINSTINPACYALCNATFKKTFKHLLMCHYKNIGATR

[5] = target: T4, Muscarinic acetylcholine receptor M1 (Rattus norvegicus, UniProt P08482); experiment: Negative allosteric modulation of rat muscarinic acetylcholine receptor M1 expressed in CHO cells assessed as inhibition of acetylcholine-induced calcium mobilization incubated for 150 secs prior to acetylcholine induction by Fluo-4 AM staining-based fluorescence assay
T4 sequence (P08482 whole entry): T1 sequence (P11229 whole entry) with A5V, T254S, P309S, R320K, A337G, I413V

[6] = target: T5, Muscarinic acetylcholine receptor M4 (Homo sapiens, UniProt P08173); experiment: Negative allosteric modulation of human muscarinic acetylcholine receptor M4 expressed in CHO cells assessed as inhibition of acetylcholine-induced calcium mobilization incubated for 150 secs prior to acetylcholine induction by Fluo-4 AM staining-based fluorescence assay
T5 sequence (P08173 whole entry): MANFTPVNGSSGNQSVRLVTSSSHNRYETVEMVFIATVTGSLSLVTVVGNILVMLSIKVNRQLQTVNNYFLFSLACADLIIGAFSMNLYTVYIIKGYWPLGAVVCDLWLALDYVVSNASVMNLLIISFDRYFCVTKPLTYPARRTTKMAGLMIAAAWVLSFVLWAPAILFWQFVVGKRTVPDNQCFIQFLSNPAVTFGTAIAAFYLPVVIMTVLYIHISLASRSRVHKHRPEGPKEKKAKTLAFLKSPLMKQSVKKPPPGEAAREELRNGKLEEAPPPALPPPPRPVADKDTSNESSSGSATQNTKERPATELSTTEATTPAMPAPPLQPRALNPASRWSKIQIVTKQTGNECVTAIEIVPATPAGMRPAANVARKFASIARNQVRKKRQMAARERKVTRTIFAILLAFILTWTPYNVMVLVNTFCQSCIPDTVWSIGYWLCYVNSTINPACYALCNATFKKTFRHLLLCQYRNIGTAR

[7] = target: Muscarinic acetylcholine receptor M3 (Rattus norvegicus, UniProt P08483); experiment: Negative allosteric modulation of rat muscarinic acetylcholine receptor M3 expressed in CHO cells assessed as inhibition of acetylcholine-induced calcium mobilization incubated for 150 secs prior to acetylcholine induction by Fluo-4 AM staining-based fluorescence assay
Chain of Muscarinic acetylcholine receptor M3 (Rattus norvegicus, UniProt P08483) (P08483 whole entry): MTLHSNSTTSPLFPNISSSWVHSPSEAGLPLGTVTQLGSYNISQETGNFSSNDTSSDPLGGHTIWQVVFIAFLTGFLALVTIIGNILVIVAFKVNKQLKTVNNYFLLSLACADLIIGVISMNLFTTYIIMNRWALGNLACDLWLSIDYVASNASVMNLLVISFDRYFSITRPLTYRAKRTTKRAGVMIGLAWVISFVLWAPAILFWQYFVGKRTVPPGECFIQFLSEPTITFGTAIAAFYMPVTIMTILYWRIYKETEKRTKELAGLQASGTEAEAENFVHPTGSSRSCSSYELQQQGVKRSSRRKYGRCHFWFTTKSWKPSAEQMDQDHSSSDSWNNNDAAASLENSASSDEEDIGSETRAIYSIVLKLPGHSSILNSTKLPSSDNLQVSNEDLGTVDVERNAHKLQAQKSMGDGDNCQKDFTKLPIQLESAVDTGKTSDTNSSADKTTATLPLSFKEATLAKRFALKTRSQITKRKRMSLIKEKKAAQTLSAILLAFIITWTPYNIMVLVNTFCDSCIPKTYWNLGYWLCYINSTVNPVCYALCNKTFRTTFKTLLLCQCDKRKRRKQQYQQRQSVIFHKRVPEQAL

Measured: IC50

O=C(c1ccc(F)c(F)c1)N1CCN2C(=O)c3ccccc3C12c1ccccc1 (centres undefined)
> 30 µM: all assays above

O=C(c1ccc(F)c(F)c1)N1CCN2C(=O)c3ccccc3[C@@]12c1ccc(Cl)cc1
> 30 µM: all assays above
